From US10869834B2, “Treatment of inflammatory bowel disease” (University College Dublin, National University of Ireland, …, priority 2016, dated 2020)

How the values were obtained:
[1] = test system: bacterial phosphotyrosine content; conditions: 0.7 mM H2O2, 3 h; when iron is present; 5% O2
Method: C. jejuni 81-176, L. monocytogenes EGDe and K. pneumoniae were grown microaerophilic to mid-log phase in minimal essential media. Bacteria were collected by centrifugation (5000 rpm, 10 min) and diluted to OD600=0.2 in MEM. Iron (II) sulfate (40 μM) was added as indicated and cultures were grown microaerophilic until OD600=0.5 was reached. To C. jejuni 81-176 cultures 5 mM H2O2 was added and the growth continued microaerophilic for 8 h. L. monocytogenes and K. pneumoniae cultures were exposed to 0.7 mM H2O2 for 3 h in microaerophilic conditions. Bacteria were then diluted to OD600=0.2, collected by centrifugation, washed twice with 25 mM Tris-HCl, resuspended in 30 μl Laemmli buffer and heated for 5 min at 95° C. Boiled samples were loaded on 10% SDS-PAGE gels, separated by electrophoresis and immunoblotted. The control samples followed an identical protocol without supplemental iron or added H2O2.

C. rodentium [2] = conditions: H2O2 generated by Cos-NOX4 cells vs Cos-p22 negative control; 4 h, DMEM; separated by a filter; n=4
Method: (§1) Cos-NOX4 and Cos-p22 cells in DMEM, 5% FBS (Cell Signal 18:69-82, 2006; J Biol Chem 283:35273-82, 2008; Mol Cell Biol 30:961-75, 2010) were seeded into the lower chamber of a Boyden chamber (pore width 0.4 μm) 48 h before the assay. Lactobacilli grown in DMEM were suspended in media onto the upper chamber. Co-culture was initiated for 3-4 h in DMEM, 5% FBS media followed by harvesting of bacteria on the filter for RNA isolation.

EPEC = conditions: H2O2 released from Cos-NOX4 cells (not Cos-p22) for 3 h; separated by a filter
Method: as §1

[3] = test system: bacterial phosphotyrosine signalling; conditions: H2O2 generated by colon cells, human biopsies and rabbit loop model during pathogen exposure; co-culture 3 h
Method: Bacteria in RPMI 1640 containing 3% FBS (OD600=0.4; 10^7 bacteria, 1 ml) were incubated with HCT-8 cells at 37° C. in microaerophilic conditions with MOI 50. DPI pretreatment of HCT-8 cells was for 20 min (25 μM). Non-adherent bacteria were removed by centrifugation of media (3300 g, 5 min), and were used for immunoblotting. […] Exposure of bacteria to H2O2 released by Cos cells stable expressing the NOX4-p22^phox complex or as negative control Cos cells expressing only p22^phox was performed using Boyden chambers. Cells in DMEM, 10% FBS medium were seeded into the bottom chamber 24 h before start of the experiment and then moved to microaerophilic conditions for 3 h. Bacteria grown in microaerophilic conditions were resuspended in 5% O2 conditioned DMEM, 3-10% FBS medium, placed on top of the filter (3 μm pore size) and incubated for 3 h. Bacteria were harvested from the filter for analysis.
Polarized In Vitro Organ Culture (pIVOC): pIVOC experiments of colon biopsies were performed as described (Cell Host Microbe 12:47-59, 2012). Bacterial infections were conducted using microaerophilic preconditioned media or buffers. L. monocytogenes was added at a final OD600=0.2 to the apical side of biopsies and H2O2 release was measured. Controls were either non-infected biopsies or biopsies pretreated with 20 μM DPI for 20 min before addition of C. jejuni or L. monocytogenes to the top chamber. […]

mucus secretion = conditions: Birchenough G. et al., Science 352:1535-1542; cited from earlier work
murine colitis (3% DSS) = assay: In-vivo murine colitis model (3% DSS), administration of H2O2-producing bacteria; parameters: species or system mice
Method: Wildtype mice were treated with 1×10^9 bacteria by daily oral gavage 5 days before, during colitis (3% DSS in water) and until the end of the experiment (day 16). On day 7 of DSS treatment, DSS was replaced with water to enable the healing process. […] One-way Anova with Tukey post-hoc test; **p=0.01, ***p=0.001.

L. monocytogenes [4] = conditions: Cos-NOX4 cell-produced H2O2 vs Cos-p22
Method: Exposure of bacteria to H2O2 released by Cos cells stable expressing the NOX4-p22^phox complex or as negative control Cos cells expressing only p22^phox was performed using Boyden chambers. Cells in DMEM, 10% FBS medium were seeded into the bottom chamber 24 h before start of the experiment and then moved to microaerophilic conditions for 3 h. Bacteria grown in microaerophilic conditions were resuspended in 5% O2 conditioned DMEM, 3-10% FBS medium, placed on top of the filter (3 μm pore size) and incubated for 3 h. Bacteria were harvested from the filter for analysis.

C. rodentium [5] = assay: C. rodentium infection of mice treated with L. johnsonii by oral gavage; type: in vivo, C57Bl/6 mice; conditions: daily oral gavage with NCC533 or NCC9359 prior and during infection; 6 dpi
Method: Cyba^flox/flox mice were bred to B6.SJL-Tg (Vil-cre) 997Gum/J mice (Jackson Laboratories) to generate mice with a targeted deletion of p22^phox in the epithelium of the small intestine and colon (p22ΔIEC). Mice were infected by oral gavage with 0.3 ml of an overnight culture of Luria Bertani broth containing 5×10^9 Citrobacter rodentium and analyzed at day 6 post infection. L. johnsonii NCC533/NCC9359 pretreatment and treatment: L. johnsonii NCC533 and NCC9359 strains were administered at a concentration of 10^9 CFU to WT mice via oral gavage starting 3 days prior C. rodentium inoculation and daily during C. rodentium infection. For histopathology Carnoy-fixed distal colons were embedded in paraffin and 5 μm sections were stained with hematoxylin and eosin (H&E).

S. pneumoniae [6] = conditions: 0.7 mM H2O2 for 3 h
Method: (§2) Invasion and adhesion assays were performed as previously reported (Cell Host Microbe 12:47-59, 2012). Bacterial cell viability was assessed using the XTT (2,3-Bis-(2-Methoxy-4-Nitro-5-Sulfophenyl)-2H-Tetrazolium-5-Carboxanilide) assay. For in vitro experiments bacteria were exposed at time zero once to 0.7 mM H2O2, except for C. jejuni (5 mM), and analyzed after indicated time periods (up to 3 h, except C. jejuni up to 6 h).

L. monocytogenes [7] = test system: L. monocytogenes
Method: as §2

C. rodentium [8] = conditions: single bolus of 1 mM H2O2 in DMEM, analysed 3 h later
Method: as §2

S. pneumoniae [9] = conditions: bacteria pretreated with 0.7 mM H2O2 for 3 h
Method: Biofilm was analyzed using SYTO9. Cultured bacteria were grown in microaerophilic conditions overnight. The bacterial culture was then adjusted to OD600=0.1 and 1 ml of this solution was added to an optical grade plastic bottom μ-plate 24 well. Bacteria were incubated for an additional 72 h in microaerophilic conditions. Bacteria were washed gently with autoclaved water to remove planktonic cells and fixed with 3% paraformaldehyde in PBS for 1 h. Images were then analyzed for total intensity of SYTO9 fluorescence over the imaged volumes using Fiji. Briefly, after staining with SYTO9, 50 independent 13.2 μm stacks of 60 images at a 0.22 μm Z resolution were imaged for all conditions. The mean fluorescence of the different slices in the stacks was measured and a standard deviation was computed from the aggregated data per slice.

[10] = daily oral gavage 5 days before, during colitis and until day 16
[11] = bacteria pretreated with 0.7 mM H2O2 for 3 h

Q: With `OO` [H2O2, hydrogen peroxide] as the compound, how does the “bacterial phosphotyrosine content (anti-phosphotyrosine immunoblots)” value [1] read?
A: decreases bacterial phosphotyrosine content

Q: And the “ler and escN expression in C. rodentium (qPCR)” value (C. rodentium [2])?
A: Downregulation of LEE island genes

Q: And the “ler and escN expression in EPEC (qPCR)” value (EPEC)?
A: Downregulation of LEE island genes

Q: What about the “bacterial phosphotyrosine signalling (anti-phosphotyrosine immunoblots)” value [3] of the same compound?
A: downregulates bacterial phosphotyrosine signalling

Q: What about the mucus secretion (mucus secretion) of the same compound?
A: can restore mucus secretion

Q: What about the “recovery after insult (disease index, body weight)” value (murine colitis (3% DSS); daily administration, low nanomolar H2O2 (via NCC533, 1x10^9 bacteria oral gavage), DSS replaced with water on day 7) of the same compound?
A: accelerates recovery after insult

Q: What about the “inflammation (colon length as indicator)” value (murine colitis (3% DSS); [10]) of the same compound?
A: downregulates inflammation

Q: What about the “tissue restitution (H&E staining of colon day 11)” value (murine colitis (3% DSS); [10]) of the same compound?
A: supports rapid tissue restitution

Q: What about the “bacterial phosphotyrosine content (anti-phosphotyrosine immunoblot)” value (L. monocytogenes [4]) of the same compound?
A: marked decrease in bacterial phosphotyrosine content

Q: And the “host epithelial tissue damage (H&E staining of colon sections)” value (C. rodentium [5])?
A: required to prevent host epithelial tissue damage

Q: And the “bacterial viability after treatment” value (S. pneumoniae [6])?
A: remained fully viable

Q: What about the “bacterial viability after treatment” value (L. monocytogenes [7]; 0.7 mM H2O2 for 3 h) of the same compound?
A: remained fully viable

Q: And the “adherence to HCT-8 colon cells” value (L. monocytogenes [7]; [11])?
A: reduced

Q: And the “invasion of HCT-8 colon cells” value (L. monocytogenes [7]; [11])?
A: reduced

Q: And the “ler expression in C. rodentium (qPCR)” value (C. rodentium [8])?
A: Downregulation of ler

Q: What about the “biofilm formation (mean SYTO9 fluorescence)” value (S. pneumoniae [9]) of the same compound?
A: Reduced biofilm formation
